In patent US3994882A, “Nitrofuran derivatives, process for the preparation thereof and compositions containing same as active ingredient” (Kabushiki Kaisha Ueno Seiyaku Oyo Kenkyujo, priority 1974, dated 1976):
Values after ≈ are worked out from the molar mass of the structure shown.

Assays:
[1] = system: Salmonella pullorum NIAH 5159; assay: Effectiveness in preventing infection by Salmonella pullorum in chicks (Table 6); format: in vivo; settings: 7 days, chicks with germs isolated / chicks tested
Protocol: A culture liquid obtained by cultivating Salmonella pullorum NIAH 5159 in a YCCB culture medium for 20 hours at 37° C. was injected into the cloaca of 2-day-old chicks at the rate of 0.2 ml per chick. Nitrofuran derivatives in total amounts indicated below were then mixed with the feed, and the so mixed feed was fed to the chicks for 7 days. The chicks were then sacrificed, and the liver and/or spleen were homogenized, following which the product was cultivated for 48 hours at 37° C. in a YCCB culture medium in customary manner. The expression, "rate of germ isolation" used in the table has the following meaning. For instance, the value 4/10 means the germs were isolated from four out of the ten chicks submitted to the test.

[2] = system: Pasteurella multocida Kobe-5; assay: Minimum growth inhibiting concentration, microorganisms that infect domestic animals (Table 2); format: cell-based; settings: KOBE5, TSB-Agar 10% rabbit blood added, 48 hours
Protocol: The minimum growth inhibiting concentrations were measured under identical conditions as in the case of Table 1, except that culture media indicated above were used and, in the case of that asterisked, the culture was carried out for 5 days, while the others were cultivated for 48 hours.

[3] = system: Vibrio piscium var. Japonicus; assay: Minimum growth inhibiting concentration, microorganisms that infect fish (Table 3); format: cell-based; settings: Vibrio anguillarum, 0.5% NaCl added ordinary agar, 25° C., 24 hours
Protocol: (§1) The minimum growth inhibiting concentrations were measured under indentical contitions as in the case of Table 1. The culture temperature was 25° C., the culture being carried out for 48 hours in the asterisked case and 24 hours in the other cases.

Vibrio anguillarum K-3 = assay: as above; format: cell-based; settings: K3, 3% NaCl added ordinary agar, 25° C., 24 hours
Protocol: as §1

Aeromonas punctata = assay: as above; format: cell-based; settings: Aeromonas caviae, 0.5% NaCl added ordinary agar, 25° C., 24 hours
Protocol: as §1

Aeromonas salmonicida = assay: as above; format: cell-based; settings: 0.5% NaCl added ordinary agar, 25° C., 24 hours
Protocol: as §1

Aeromonas liquefaciens = assay: as above; format: cell-based; settings: Aeromonas hydrophila, 0.5% NaCl added ordinary agar, 25° C., 24 hours
Protocol: as §1

[4] = system: Chondrococcus columnaris Ek-23; assay: as above; format: cell-based; settings: Flavobacterium columnare, EK23, 0.5% NaCl added TSB agar, 25° C., 48 hours (asterisked)
Protocol: as §1

Vibrio panulirus Vp-M-1 = assay: as above; format: cell-based; settings: VPM1, 3% NaCl added ordinary agar, 25° C., 24 hours
Protocol: as §1

Pasteurella piricida SU = assay: as above; format: cell-based; settings: 2% NaCl added brain-heat infusion agar, 25° C., 24 hours
Protocol: as §1

Vibrio sp. Sp-1 = assay: as above; format: cell-based; settings: SP.SP1, 3% NaCl added ordinary agar, 25° C., 24 hours
Protocol: as §1

O=C(NCCO)c1ccc(C=Cc2ccc([N+](=O)[O-])o2)cc1 [Example 1, 2-Para-[2'-(5"-nitro-2"-furyl)-vinyl]-benzoylaminoethanol] was tested, and the “Rate of germ isolation” value ([1]; 50 ppm in feed) was 4/10, the “Rate of germ isolation” value ([1]; 100 ppm in feed) was 4/10 and the “Rate of germ isolation” value ([1]; 200 ppm in feed) was 3/10. The “Rate of germ isolation” value ([1]; 400 ppm in feed) was 2/10, the “Rate of germ isolation” value ([1]; 800 ppm in feed) was 0/10 and the MIC [2] was 0.15 µg/mL (≈ 0.496 µM). For the same molecule, the MIC [3] was < 0.015 µg/mL, the MIC (Vibrio anguillarum K-3) was 0.018 µg/mL (≈ 0.0595 µM) and the MIC (Aeromonas punctata) was 0.125 µg/mL (≈ 0.414 µM). The MIC (Aeromonas salmonicida) was 0.018 µg/mL (≈ 0.0595 µM), the MIC (Aeromonas liquefaciens) was 0.062 µg/mL (≈ 0.205 µM) and the MIC [4] was 0.0037 µg/mL (≈ 0.0122 µM). The MIC (Vibrio panulirus Vp-M-1) was 0.009 µg/mL (≈ 0.0298 µM), the MIC (Pasteurella piricida SU) was 0.037 µg/mL (≈ 0.122 µM) and the MIC (Vibrio sp. Sp-1) was 0.018 µg/mL (≈ 0.0595 µM).
O=C(NCC(O)CO)c1ccc(C=Cc2ccc([N+](=O)[O-])o2)cc1 (stereo not drawn) [Example 9, 3-Para-[2'-(5"-nitro-2"-furyl)-vinyl]-benzoylamino-1,2-propanediol] was tested, and the “Rate of germ isolation” value ([1]; 50 ppm in feed) was 4/10, the “Rate of germ isolation” value ([1]; 100 ppm in feed) was 4/10 and the “Rate of germ isolation” value ([1]; 200 ppm in feed) was 3/10. The “Rate of germ isolation” value ([1]; 400 ppm in feed) was 2/10, the “Rate of germ isolation” value ([1]; 800 ppm in feed) was 1/10 and the MIC [2] was 0.08 µg/mL (≈ 0.241 µM). The MIC [3] was < 0.015 µg/mL, the MIC (Vibrio anguillarum K-3) was 0.037 µg/mL (≈ 0.111 µM) and the MIC (Aeromonas punctata) was 0.25 µg/mL (≈ 0.752 µM). For the same molecule, the MIC (Aeromonas salmonicida) was 0.018 µg/mL (≈ 0.0542 µM), the MIC (Aeromonas liquefaciens) was 0.037 µg/mL (≈ 0.111 µM) and the MIC [4] was 0.0037 µg/mL (≈ 0.0111 µM). For the same molecule, the MIC (Vibrio panulirus Vp-M-1) was 0.009 µg/mL (≈ 0.0271 µM), the MIC (Pasteurella piricida SU) was 0.037 µg/mL (≈ 0.111 µM) and the MIC (Vibrio sp. Sp-1) was 0.018 µg/mL (≈ 0.0542 µM).
